Measurements reported in patent US20260083743A1, “NUCLEOSIDE DERIVATIVE FOR PREVENTING AND TREATING INFLAMMATION AND APPLICATION THEREOF” (WEST CHINA HOSPITAL OF SICHUAN UNIVERSITY, priority 2019, published 2026).

system: mouse hepatitis model; test: Improvement effect on hepatitis, concanavalin A (ConA) mouse hepatitis model; format: in vivo, Blab/c mice; conditions: 6 h after administration; gavage 50 mg/kg; n = 10
Method: In this example, the improvement effect of compounds 1 19 prepared in example 1 on […] measured. (1) Animals: Adult and Healthy Male Blab/c Mice, 25 30 g. […] The blank control group was injected with equal volume of isotonic saline. After modeling, indomethacin and compounds 1 19 were given by gavage every day at the dose of 50 mg/kg. The blank control group and the model control group were given equal volume of isotonic saline. Eyeball blood and liver tissue were taken at 6 h, 12 h, 24 h and 48 h after administration. The levels of serum alanine aminotransferase (ALT) and aspartate aminotransferase (AST) were measured.

SMILES	Aspartate aminotransferase (AST) [U/L]	Serum alanine aminotransferase (ALT) [U/L]
Cn1c(=O)c2c(ncn2C)n(C)c1=O [Caffeine, caffeine, reference compound]	260 ± 31	590 ± 54
CCn1c(=O)c2c(ncn2C)n(C)c1=O [Compound 1, 1-ethyl-3-7-dimethylxanthine]	43 ± 7	56 ± 8
CC(C)n1c(=O)c2c(ncn2C)n(C)c1=O [Compound 2, 1-isopropyl-3,7-dimethylxanthine]	53 ± 7	59 ± 8
CCn1c(=O)c2ncn(C)c2n(C)c1=O [Compound 3, 1-ethyl-3,9-dimethylxanthine]	59 ± 7	67 ± 8
CCn1cnc2c1c(=O)n(C)c(=O)n2C [Compound 4, 1,3-dimethyl-7-ethylxanthine]	65 ± 7	79 ± 8
CCn1c(=O)c2c(ncn2CC)n(C)c1=O [Compound 5, 1,7-diethyl-3-methylxanthine]	71 ± 7	73 ± 8
CC(C)n1cnc2c(=O)[nH]cnc21 [Compound 6, 9-isopropyl hypoxanthine]	49 ± 7	56 ± 5
CC(C)n1c(=O)c2c(ncn2C(C)C)n(C)c1=O [Compound 7, 1,7-diisopropyl-3-methylxanthine]	41 ± 7	51 ± 8
CC(=O)OCCn1c(=O)c2c(ncn2C)n(C)c1=O [Compound 8, 1-(acetic acid-2-ethyl)-3,7-dimethylxanthine]	68 ± 7	67 ± 8
CCC(=O)OCCn1c(=O)c2c(ncn2C)n(C)c1=O [Compound 9, 1-(propionic acid-2-ethyl)-3,7-dimethylxanthine]	78 ± 7	78 ± 8
CC(C)C(=O)OCCn1c(=O)c2c(ncn2C)n(C)c1=O [Compound 10, 1-(isopropyl acid-2-ethyl)-3,7-dimethylxanthine]	87 ± 9	83 ± 8

same assay, conditions: 12 h after administration; gavage 50 mg/kg; n = 10

SMILES	Aspartate aminotransferase (AST) [U/L]	Serum alanine aminotransferase (ALT) [U/L]
Cn1c(=O)c2c(ncn2C)n(C)c1=O [Caffeine, caffeine, reference compound]	860 ± 91	1456 ± 132
CCn1c(=O)c2c(ncn2C)n(C)c1=O [Compound 1, 1-ethyl-3-7-dimethylxanthine]	82 ± 8	97 ± 8
CC(C)n1c(=O)c2c(ncn2C)n(C)c1=O [Compound 2, 1-isopropyl-3,7-dimethylxanthine]	89 ± 8	98 ± 6
CCn1c(=O)c2ncn(C)c2n(C)c1=O [Compound 3, 1-ethyl-3,9-dimethylxanthine]	96 ± 8	102 ± 8
CCn1cnc2c1c(=O)n(C)c(=O)n2C [Compound 4, 1,3-dimethyl-7-ethylxanthine]	91 ± 8	118 ± 9
CCn1c(=O)c2c(ncn2CC)n(C)c1=O [Compound 5, 1,7-diethyl-3-methylxanthine]	93 ± 8	109 ± 8
CC(C)n1cnc2c(=O)[nH]cnc21 [Compound 6, 9-isopropyl hypoxanthine]	86 ± 8	85 ± 6
CC(C)n1c(=O)c2c(ncn2C(C)C)n(C)c1=O [Compound 7, 1,7-diisopropyl-3-methylxanthine]	78 ± 8	93 ± 8
CC(=O)OCCn1c(=O)c2c(ncn2C)n(C)c1=O [Compound 8, 1-(acetic acid-2-ethyl)-3,7-dimethylxanthine]	95 ± 8	110 ± 13
CCC(=O)OCCn1c(=O)c2c(ncn2C)n(C)c1=O [Compound 9, 1-(propionic acid-2-ethyl)-3,7-dimethylxanthine]	123 ± 8	110 ± 13
CC(C)C(=O)OCCn1c(=O)c2c(ncn2C)n(C)c1=O [Compound 10, 1-(isopropyl acid-2-ethyl)-3,7-dimethylxanthine]	167 ± 19	132 ± 13

same assay, conditions: 24 h after administration; gavage 50 mg/kg; n = 10

SMILES	Serum alanine aminotransferase (ALT) [U/L]	Aspartate aminotransferase (AST) [U/L]
Cn1c(=O)c2c(ncn2C)n(C)c1=O [Caffeine, caffeine, reference compound]	2632 ± 321	–
CCn1c(=O)c2c(ncn2C)n(C)c1=O [Compound 1, 1-ethyl-3-7-dimethylxanthine]	132 ± 12	104 ± 8
CC(C)n1c(=O)c2c(ncn2C)n(C)c1=O [Compound 2, 1-isopropyl-3,7-dimethylxanthine]	142 ± 12	112 ± 10
CCn1c(=O)c2ncn(C)c2n(C)c1=O [Compound 3, 1-ethyl-3,9-dimethylxanthine]	152 ± 14	114 ± 11
CCn1cnc2c1c(=O)n(C)c(=O)n2C [Compound 4, 1,3-dimethyl-7-ethylxanthine]	142 ± 12	103 ± 9
CCn1c(=O)c2c(ncn2CC)n(C)c1=O [Compound 5, 1,7-diethyl-3-methylxanthine]	136 ± 12	101 ± 8
CC(C)n1cnc2c(=O)[nH]cnc21 [Compound 6, 9-isopropyl hypoxanthine]	136 ± 16	103 ± 9
CC(C)n1c(=O)c2c(ncn2C(C)C)n(C)c1=O [Compound 7, 1,7-diisopropyl-3-methylxanthine]	131 ± 12	101 ± 8
CC(=O)OCCn1c(=O)c2c(ncn2C)n(C)c1=O [Compound 8, 1-(acetic acid-2-ethyl)-3,7-dimethylxanthine]	172 ± 16	122 ± 12
CCC(=O)OCCn1c(=O)c2c(ncn2C)n(C)c1=O [Compound 9, 1-(propionic acid-2-ethyl)-3,7-dimethylxanthine]	175 ± 18	142 ± 13
CC(C)C(=O)OCCn1c(=O)c2c(ncn2C)n(C)c1=O [Compound 10, 1-(isopropyl acid-2-ethyl)-3,7-dimethylxanthine]	186 ± 19	189 ± 15

same assay, conditions: 48 h after administration; gavage 50 mg/kg; n = 10

SMILES	Aspartate aminotransferase (AST) [U/L]	Serum alanine aminotransferase (ALT) [U/L]
Cn1c(=O)c2c(ncn2C)n(C)c1=O [Caffeine, caffeine, reference compound]	943 ± 91	1432 ± 152
CCn1c(=O)c2c(ncn2C)n(C)c1=O [Compound 1, 1-ethyl-3-7-dimethylxanthine]	89 ± 9	100 ± 12
CC(C)n1c(=O)c2c(ncn2C)n(C)c1=O [Compound 2, 1-isopropyl-3,7-dimethylxanthine]	99 ± 9	112 ± 13
CCn1c(=O)c2ncn(C)c2n(C)c1=O [Compound 3, 1-ethyl-3,9-dimethylxanthine]	103 ± 9	113 ± 12
CCn1cnc2c1c(=O)n(C)c(=O)n2C [Compound 4, 1,3-dimethyl-7-ethylxanthine]	96 ± 9	105 ± 13
CCn1c(=O)c2c(ncn2CC)n(C)c1=O [Compound 5, 1,7-diethyl-3-methylxanthine]	91 ± 9	105 ± 12
CC(C)n1cnc2c(=O)[nH]cnc21 [Compound 6, 9-isopropyl hypoxanthine]	84 ± 8	103 ± 13
CC(C)n1c(=O)c2c(ncn2C(C)C)n(C)c1=O [Compound 7, 1,7-diisopropyl-3-methylxanthine]	84 ± 7	95 ± 12
CC(=O)OCCn1c(=O)c2c(ncn2C)n(C)c1=O [Compound 8, 1-(acetic acid-2-ethyl)-3,7-dimethylxanthine]	98 ± 9	132 ± 13
CCC(=O)OCCn1c(=O)c2c(ncn2C)n(C)c1=O [Compound 9, 1-(propionic acid-2-ethyl)-3,7-dimethylxanthine]	131 ± 14	123 ± 12
CC(C)C(=O)OCCn1c(=O)c2c(ncn2C)n(C)c1=O [Compound 10, 1-(isopropyl acid-2-ethyl)-3,7-dimethylxanthine]	176 ± 17	154 ± 17

system: arthritis model; test: Improvement effect on arthritis, sodium iodoacetate knee joint model in SD rats; format: in vivo; set-up: Pathological tissue score (joint): scale not given here; conditions: gavage every day 100 mg/kg/d; 4th week after operation; n = 10
Method: In this example, the improvement effect of compounds 1˜19 prepared in example 1 on arthritic was measured. (1) Animals: SD rats, four rates in one cage, were fed under the conditions of constant temperature (25±2° C.) and illumination control (12 h day/night circulation). The animals were fed with standard feed, and fed for at least 7 days to adapt environment before the experiment. […] (3) SD rats were fasted for 12 hours before operation, and weighed and recorded prior to operation. The blank control group was not treated any more. […] After anesthesia, they were fixed in the supine position. 0.1 ml of 1 g/L sodium iodoacetate solution was injected into the knee joint. From the fifth day, the animals were driven to run for 30 minutes every day, and they were allowed to move freely in the cage the rest of the time. After modeling, indomethacin and compounds 1˜19 were given by gavage every day at the dose of 100 mg/kg/d. The blank control group and the model control group were given equal volume of isotonic saline. At the 4th week after operation, the articular fluid of rats in each group was extracted to measure the content of MMP-13. The rats were killed, and the subchondral bone plate of the inner condyle of the tibia of the right knee was cut and processed into specimens, and pathological scores were made.

SMILES	MMP-13 content in joint fluid [mg/L]	Pathological tissue score (joint)
Cn1c(=O)c2c(ncn2C)n(C)c1=O [Caffeine, caffeine, reference compound]	59 ± 8	2.6 ± 0.4
CCn1c(=O)c2c(ncn2C)n(C)c1=O [Compound 1, 1-ethyl-3-7-dimethylxanthine]	86 ± 4	0.2 ± 0.3
CC(C)n1c(=O)c2c(ncn2C)n(C)c1=O [Compound 2, 1-isopropyl-3,7-dimethylxanthine]	92 ± 8	0.3 ± 0.4
CCn1c(=O)c2ncn(C)c2n(C)c1=O [Compound 3, 1-ethyl-3,9-dimethylxanthine]	97 ± 4	0.6 ± 0.3
CCn1cnc2c1c(=O)n(C)c(=O)n2C [Compound 4, 1,3-dimethyl-7-ethylxanthine]	102 ± 8	0.6 ± 0.4
CCn1c(=O)c2c(ncn2CC)n(C)c1=O [Compound 5, 1,7-diethyl-3-methylxanthine]	99 ± 5	0.7 ± 0.3
CC(C)n1cnc2c(=O)[nH]cnc21 [Compound 6, 9-isopropyl hypoxanthine]	90 ± 8	0.3 ± 0.4
CC(C)n1c(=O)c2c(ncn2C(C)C)n(C)c1=O [Compound 7, 1,7-diisopropyl-3-methylxanthine]	84 ± 5	0.3 ± 0.3
CC(=O)OCCn1c(=O)c2c(ncn2C)n(C)c1=O [Compound 8, 1-(acetic acid-2-ethyl)-3,7-dimethylxanthine]	92 ± 8	0.4 ± 0.5
CCC(=O)OCCn1c(=O)c2c(ncn2C)n(C)c1=O [Compound 9, 1-(propionic acid-2-ethyl)-3,7-dimethylxanthine]	97 ± 7	0.6 ± 0.2
CC(C)C(=O)OCCn1c(=O)c2c(ncn2C)n(C)c1=O [Compound 10, 1-(isopropyl acid-2-ethyl)-3,7-dimethylxanthine]	91 ± 8	0.7 ± 0.4

system: sodium taurocholate-induced pancreatitis model; test: Improvement effect on pancreatitis, sodium taurocholate-induced model in mice; format: in vivo, Blab/c mice; set-up: Pancreatic histopathological injury score: scale not given here; conditions: 17.5 mg/kg caudal vein 1 h, 3 h and 6 h after model construction; after 24 hours; n = 10
Description: In this example, the improvement effect of compounds 1 19 prepared in example 1 on […] measured. (1) Animals: Adult and Healthy Male Blab/c Mice, 25 30 g. […] A model was made with sodium taurocholate. […] After anesthesia, the surgical site was sterilized with an alcohol cotton ball. The sterile gauze was placed on the surgical site. A laparotomy was made at the width of two fingers under the xiphoid process. After seeing the liver, an incision was made, the cotton swab soaked in normal saline was stretched into the enterocoelia, the duodenum was sought on the back of the liver, turned out and placed on the sterile gauze, the pancreaticobiliary duct and duodenal papilla were sought, and the needle of 1 mL syringe was used to pierce a hole on the along the direction of the nipple, a 24 G indwelling needle tube was inserted into the pancreatic duct along the nipple, and the common bile duct below the liver was closed with an arterial vascular clip, with a dose of 0.1 mL/100 g and 0.1 mL/min inject sodium taurocholate with a concentration of 3.8% at a flow rate. During this process, pay attention to adding saline to the exposed pancreas and duodenum to keep it moist. After the injection, the tube was slowly taken out and the bile duct was continued to be closed. The main tube was removed from the vascular artery clip 3 minutes later, the duodenum was also accommodated, and the abdominal cavity was sutured in double layers. The blank control group was injected with equal volume of isotonic saline. […] The blank control group and the model control group were given equal volume of isotonic saline. After 24 hours, pancreatic tissue and blood samples were taken, and the pancreatic histopathological injury score and the level of pancreatic amylase in serum were evaluated.

SMILES	Amylopsin (pancreatic amylase level in serum) [KU/L]	Pancreatic histopathological injury score
Cn1c(=O)c2c(ncn2C)n(C)c1=O [Caffeine, caffeine, reference compound]	16 ± 2	2.6 ± 0.4
CCn1c(=O)c2c(ncn2C)n(C)c1=O [Compound 1, 1-ethyl-3-7-dimethylxanthine]	3 ± 1	0.4 ± 0.3
CC(C)n1c(=O)c2c(ncn2C)n(C)c1=O [Compound 2, 1-isopropyl-3,7-dimethylxanthine]	4 ± 2	0.6 ± 0.2
CCn1c(=O)c2ncn(C)c2n(C)c1=O [Compound 3, 1-ethyl-3,9-dimethylxanthine]	3 ± 2	0.5 ± 0.2
CCn1cnc2c1c(=O)n(C)c(=O)n2C [Compound 4, 1,3-dimethyl-7-ethylxanthine]	11 ± 2	1.4 ± 0.4
CCn1c(=O)c2c(ncn2CC)n(C)c1=O [Compound 5, 1,7-diethyl-3-methylxanthine]	3 ± 1	0.4 ± 0.2
CC(C)n1cnc2c(=O)[nH]cnc21 [Compound 6, 9-isopropyl hypoxanthine]	2 ± 1	0.4 ± 0.1
CC(C)n1c(=O)c2c(ncn2C(C)C)n(C)c1=O [Compound 7, 1,7-diisopropyl-3-methylxanthine]	4 ± 2	0.5 ± 0.2
CC(=O)OCCn1c(=O)c2c(ncn2C)n(C)c1=O [Compound 8, 1-(acetic acid-2-ethyl)-3,7-dimethylxanthine]	5 ± 2	0.8 ± 0.4
CCC(=O)OCCn1c(=O)c2c(ncn2C)n(C)c1=O [Compound 9, 1-(propionic acid-2-ethyl)-3,7-dimethylxanthine]	5 ± 3	0.5 ± 0.4
CC(C)C(=O)OCCn1c(=O)c2c(ncn2C)n(C)c1=O [Compound 10, 1-(isopropyl acid-2-ethyl)-3,7-dimethylxanthine]	7 ± 5	0.6 ± 0.4
